Consider 17 compounds from ChEMBL document CHEMBL4765494, “A role of flavonoids in cytochrome c-cardiolipin interactions” (Bioorg Med Chem, 2021).

Data set [1] has as its target Cytochrome c (Homo sapiens) (UniProt P99999). Nature of the data set: Inhibition of cytochrome c (unknown origin) assessed as reduction in cyt c-CL complex formation at 10 uM incubated for 15 mins in presence of cardiolipin by Trp-59 fluorescence assay relative to control.
The target is the same in data set [2]. The data set can be described thus: Inhibition of cytochrome c (unknown origin) assessed as reduction in cyt c-CL peroxidase activity at 10 uM up to 20 mins in presence of cardiolipin by Amplex red staining based fluorescence assay relative to control. Particulars: time min <=20.
For data set [3] the target is unchanged. Nature of the data set: Inhibition of cytochrome c (unknown origin) assessed as reduction reduction of cyt c from its ferric state to ferrous state at 10 uM incubated for 20 mins in presence of cardiolipin by UV-vis Spectrophotometric assay relative to control.
The nature of data set [4]: Octanol-water distribution coefficient, log D of the compound at pH 7.4 after 1 hr by UV-VIS spectroscopic analysis. Format: physicochemical.
Data set [5] concerns the target Cytochrome c (Homo sapiens) (UniProt P99999). The data set can be described thus: Inhibition of cytochrome c (unknown origin) assessed as reduction reduction of cyt c from its ferric state to ferrous state incubated for 20 mins in presence of cardiolipin by UV-vis Spectrophotometric assay.
The target is the same in data set [6]. The data set can be described thus: Inhibition of cytochrome c (unknown origin) assessed as pseudo first order rate constant.
The target is the same in data set [7].
Description: Inhibition of cytochrome c (unknown origin) assessed as half-time reaction

Cytochrome c (Homo sapiens), sequence (P99999 whole entry): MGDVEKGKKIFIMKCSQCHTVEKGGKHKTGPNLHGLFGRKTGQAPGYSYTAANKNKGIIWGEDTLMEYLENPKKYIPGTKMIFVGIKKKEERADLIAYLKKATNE

Take `O=C1C[C@@H](c2ccccc2)Oc2ccccc21`: the inhibition in data set [1] is 67%; in data set [2], 47%; in data set [3] it was 12%. Besides, the log distribution coefficient (logD) at 1 h in data set [4] is 2.95.

Turning to `O=c1c(-c2ccc(O)cc2)coc2cc(O)ccc12`, the values for the inhibition in data set [2] and in data set [3] were 43% and 5.8%, respectively.

Regarding `O=c1cc(-c2ccccc2)oc2ccccc12`, the values for the inhibition in data set [1], in data set [2] and in data set [3] were 87%, 50% and 0%, respectively.

As to `O=C1c2c(O)cc(O)cc2O[C@H](c2ccc(O)c(O)c2)[C@H]1O` [(+)-TAXIFOLIN], the results for the inhibition in data set [1], in data set [2] and in data set [3] were 58%, 67% and 36%, respectively. For the same compound, the K in data set [5] was determined as 1 M⁻¹ s⁻¹; in data set [6] it was 0.067 min⁻¹. The same compound displayed a logD at 1 h in data set [4] of 0.67.

For `O=c1cc(-c2ccccc2)oc2cc(O)c(O)c(O)c12` [BAICALEIN], the inhibition is 91% in data set [1], 71% in data set [2] and 79% in data set [3]. This compound also gave a logD at 1 h in data set [4] of 2.51.

For the compound `COc1ccc(-c2coc3cc(O)cc(O)c3c2=O)cc1` [BIOCHANIN], the inhibition in data set [1] is 37%; in data set [2], 32%; in data set [3], 23%. Also, the logD at 1 h in data set [4] was found to be 2.82.

As for `Oc1cc(O)c2c(c1)O[C@H](c1ccc(O)c(O)c1)[C@@H](O)C2` [CIANIDANOL], the inhibition in data set [2] was found to be 90%; in data set [3], 61%. Besides, the K in data set [5] turned out to be 2 M⁻¹ s⁻¹; in data set [6] it was 0.13 min⁻¹. The logD at 1 h in data set [4] came to 0.01.

On to `O=C(O[C@@H]1Cc2c(O)cc(O)cc2O[C@@H]1c1cc(O)c(O)c(O)c1)c1cc(O)c(O)c(O)c1` [EPIGALOCATECHIN GALLATE], for which the inhibition is 63% in data set [1], 50% in data set [2] and 62% in data set [3]. In data set [4], this compound showed a pH-dependent lipophilicity (logD) at 1 h of 0.04. Moreover, the T1/2 in data set [7] came out at 1.3 min.

For `O=c1c(O)c(-c2ccc(O)c(O)c2)oc2cc(O)ccc12` [FISETIN], the inhibition is 85% in data set [1], 81% in data set [2] and 73% in data set [3]. The K in data set [5] was 220 M⁻¹ s⁻¹. Besides, in data set [4], the pH-dependent lipophilicity (logD) at 1 h was 2.29.

For `O=c1c(-c2ccc(O)cc2)coc2cc(O)cc(O)c12` [GENISTEIN], the inhibition in data set [1] was determined as 50%; in data set [2], 51%; in data set [3] it was 0%. In data set [4], this compound came in with a pH-dependent lipophilicity (logD) at 1 h of 2.68.

On to `COc1ccc([C@@H]2CC(=O)c3c(O)cc(O)cc3O2)cc1O` [HESPERETIN], for which the inhibition was found to be 71% in data set [1], 57% in data set [2] and 7.8% in data set [3]. Further, in data set [5], the K turned out to be 0.1 M⁻¹ s⁻¹. The same compound displayed a logD at 1 h in data set [4] of 2.22.

Turning to `O=c1c(O)c(-c2ccc(O)cc2)oc2cc(O)cc(O)c12` [KAEMPFEROL], the inhibition is 83% in data set [1], 70% in data set [2] and 83% in data set [3]. The K in data set [5] stood at 92 M⁻¹ s⁻¹. The same compound returned a logD at 1 h in data set [4] of 3.39. Also, the T1/2 in data set [7] came to 1.2 min.

In the case of `O=c1cc(-c2ccc(O)c(O)c2)oc2cc(O)cc(O)c12` [LUTEOLIN], the inhibition in data set [1] is 84%; in data set [2] it was 71%; in data set [3], 32%. In addition, the K in data set [6] is 0.033 min⁻¹. The compound further returned a pH-dependent lipophilicity (logD) at 1 h in data set [4] of 2.7. This compound also returned a T1/2 in data set [7] of 11 min.

With `O=c1c(O)c(-c2cc(O)c(O)c(O)c2)oc2cc(O)cc(O)c12` [MYRICETIN], the inhibition in data set [1] was determined as 91%; in data set [2] it was 81%; in data set [3], 90%. Besides, the K in data set [5] worked out at 1030 M⁻¹ s⁻¹. Further, the pH-dependent lipophilicity (logD) at 1 h in data set [4] was 0.91. The T1/2 in data set [7] is 0.08 min.

Turning to `O=C1C[C@@H](c2ccc(O)cc2)Oc2cc(O)cc(O)c21` [NARINGENIN], the inhibition was 60% in data set [1], 46% in data set [2] and 7.3% in data set [3]. In addition, in data set [5], the K worked out at 0.002 M⁻¹ s⁻¹. Besides, the logD at 1 h in data set [4] was 2.35.

Turning to `C[C@@H]1O[C@@H](O[C@H]2[C@H](Oc3cc(O)c4c(c3)O[C@H](c3ccc(O)cc3)CC4=O)O[C@H](CO)[C@@H](O)[C@@H]2O)[C@H](O)[C@H](O)[C@H]1O` [NARINGIN], the inhibition in data set [1] was found to be 81%; in data set [2], 54%; in data set [3], 27%. Besides, the logD at 1 h in data set [4] is -0.87.

Regarding `C[C@@H]1O[C@@H](OC[C@H]2O[C@@H](Oc3c(-c4ccc(O)c(O)c4)oc4cc(O)cc(O)c4c3=O)[C@H](O)[C@@H](O)[C@@H]2O)[C@H](O)[C@H](O)[C@H]1O` [RUTIN], the inhibition came out at 66% in data set [1], 28% in data set [2] and 19% in data set [3]. Further, the logD at 1 h in data set [4] was -0.67.

What is called inhibition is the relative decrease from the control value, in per cent. For orientation: logD means lipophilicity at a set pH, counting ionised and neutral species. The low end stands for a more hydrophilic compound, the high end for a more lipophilic compound.
